Test results as given in PMC9785850, “Encorafenib Acts as a Dual-Activity Chemosensitizer through Its Inhibitory Effect on ABCC1 Transporter In Vitro and Ex Vivo” (Pharmaceutics, 2022).

Columns and labels:
P-glycoprotein (ABCB1) = target: T1, P-glycoprotein (ABCB1) (Homo sapiens, UniProt P08183); experiment: daunorubicin accumulation assay in MDCKII-ABCB1 cells, flow cytometry; format: cell-based
T1 construct: human ABCB1 overexpressed in MDCKII cells

ABCC1 = target: T2, ABCC1 (Homo sapiens, UniProt P33527); experiment: daunorubicin accumulation assay in MDCKII-ABCC1 cells, flow cytometry; format: cell-based
T2 construct: human ABCC1 overexpressed in MDCKII cells
T2 sequence (P33527 whole entry): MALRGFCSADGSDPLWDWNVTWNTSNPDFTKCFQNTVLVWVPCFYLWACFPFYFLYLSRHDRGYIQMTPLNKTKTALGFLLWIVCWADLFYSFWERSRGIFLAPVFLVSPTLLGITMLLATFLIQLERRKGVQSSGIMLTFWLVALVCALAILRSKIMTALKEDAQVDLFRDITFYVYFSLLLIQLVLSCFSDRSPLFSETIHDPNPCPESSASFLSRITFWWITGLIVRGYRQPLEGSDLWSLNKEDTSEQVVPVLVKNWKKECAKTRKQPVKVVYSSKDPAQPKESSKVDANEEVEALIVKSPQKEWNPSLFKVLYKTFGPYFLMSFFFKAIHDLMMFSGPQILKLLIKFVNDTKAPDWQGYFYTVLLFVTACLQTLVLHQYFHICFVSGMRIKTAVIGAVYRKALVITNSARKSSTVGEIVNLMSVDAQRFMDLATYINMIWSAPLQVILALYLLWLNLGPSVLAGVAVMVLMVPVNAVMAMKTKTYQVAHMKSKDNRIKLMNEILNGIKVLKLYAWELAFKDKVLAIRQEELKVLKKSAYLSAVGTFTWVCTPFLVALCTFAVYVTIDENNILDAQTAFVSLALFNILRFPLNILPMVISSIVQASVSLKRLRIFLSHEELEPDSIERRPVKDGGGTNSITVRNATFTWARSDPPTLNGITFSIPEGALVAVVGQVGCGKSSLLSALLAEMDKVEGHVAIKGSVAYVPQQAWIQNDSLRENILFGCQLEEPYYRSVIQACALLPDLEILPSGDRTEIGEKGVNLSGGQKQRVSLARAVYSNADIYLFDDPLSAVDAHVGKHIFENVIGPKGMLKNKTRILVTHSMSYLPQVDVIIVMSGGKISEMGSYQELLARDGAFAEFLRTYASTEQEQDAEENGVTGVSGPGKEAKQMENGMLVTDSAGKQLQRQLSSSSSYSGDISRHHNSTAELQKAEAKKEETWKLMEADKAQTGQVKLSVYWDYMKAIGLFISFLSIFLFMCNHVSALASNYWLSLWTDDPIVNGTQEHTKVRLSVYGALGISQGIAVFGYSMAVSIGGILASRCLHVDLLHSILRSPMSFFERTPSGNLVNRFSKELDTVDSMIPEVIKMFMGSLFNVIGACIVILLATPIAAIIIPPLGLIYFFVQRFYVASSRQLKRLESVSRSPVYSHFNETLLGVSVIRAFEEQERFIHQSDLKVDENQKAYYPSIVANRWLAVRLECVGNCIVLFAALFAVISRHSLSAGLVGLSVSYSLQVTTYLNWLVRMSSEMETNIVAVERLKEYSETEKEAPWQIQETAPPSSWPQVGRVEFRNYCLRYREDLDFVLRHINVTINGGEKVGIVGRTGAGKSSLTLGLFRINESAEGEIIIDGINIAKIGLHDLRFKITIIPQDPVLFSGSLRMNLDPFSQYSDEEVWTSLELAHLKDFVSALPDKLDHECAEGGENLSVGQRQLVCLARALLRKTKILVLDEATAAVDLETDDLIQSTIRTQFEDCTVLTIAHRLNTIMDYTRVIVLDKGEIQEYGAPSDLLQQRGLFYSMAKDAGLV

T1 sequence (P08183 whole entry): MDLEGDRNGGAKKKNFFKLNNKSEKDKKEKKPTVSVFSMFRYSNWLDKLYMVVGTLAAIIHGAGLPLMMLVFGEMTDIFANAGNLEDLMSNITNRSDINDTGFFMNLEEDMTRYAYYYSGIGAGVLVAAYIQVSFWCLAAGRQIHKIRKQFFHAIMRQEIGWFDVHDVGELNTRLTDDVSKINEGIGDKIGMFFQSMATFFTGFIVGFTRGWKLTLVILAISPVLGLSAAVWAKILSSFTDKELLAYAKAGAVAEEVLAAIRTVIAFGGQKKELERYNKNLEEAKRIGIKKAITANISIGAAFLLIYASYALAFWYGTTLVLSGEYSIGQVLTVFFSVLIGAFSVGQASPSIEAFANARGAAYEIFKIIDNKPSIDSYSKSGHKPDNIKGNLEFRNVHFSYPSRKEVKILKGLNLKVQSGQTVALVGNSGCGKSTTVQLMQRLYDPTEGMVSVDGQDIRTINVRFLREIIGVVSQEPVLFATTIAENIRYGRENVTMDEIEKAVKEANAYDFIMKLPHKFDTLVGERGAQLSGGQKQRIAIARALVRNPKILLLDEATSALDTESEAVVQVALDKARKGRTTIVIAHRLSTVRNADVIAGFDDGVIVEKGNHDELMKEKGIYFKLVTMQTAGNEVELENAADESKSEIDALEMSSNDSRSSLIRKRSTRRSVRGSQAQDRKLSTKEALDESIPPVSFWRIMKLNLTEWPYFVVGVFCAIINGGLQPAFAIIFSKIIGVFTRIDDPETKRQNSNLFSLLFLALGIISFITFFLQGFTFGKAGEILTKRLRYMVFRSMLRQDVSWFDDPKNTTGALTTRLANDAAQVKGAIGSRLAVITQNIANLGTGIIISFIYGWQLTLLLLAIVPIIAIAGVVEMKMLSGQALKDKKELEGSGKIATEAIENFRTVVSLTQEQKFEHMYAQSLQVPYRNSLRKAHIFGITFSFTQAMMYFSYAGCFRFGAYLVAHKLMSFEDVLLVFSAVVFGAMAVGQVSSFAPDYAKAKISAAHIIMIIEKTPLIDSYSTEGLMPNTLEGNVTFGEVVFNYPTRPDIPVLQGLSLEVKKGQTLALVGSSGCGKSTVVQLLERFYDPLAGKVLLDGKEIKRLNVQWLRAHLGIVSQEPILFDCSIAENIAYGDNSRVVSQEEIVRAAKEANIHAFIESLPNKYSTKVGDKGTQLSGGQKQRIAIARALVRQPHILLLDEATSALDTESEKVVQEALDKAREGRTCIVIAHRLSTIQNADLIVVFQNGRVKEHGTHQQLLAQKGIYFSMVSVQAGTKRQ

With COC(=O)N[C@@H](C)CNc1nccc(-c2cn(C(C)C)nc2-c2cc(Cl)cc(NS(C)(=O)=O)c2F)n1 [encorafenib] the IC50 (P-glycoprotein (ABCB1)) was 25.1 µM and the IC50 (ABCC1) was 8.63 µM.
